# Data taken from ChEMBL document CHEMBL3885861, “Open TG-GATES”.
# Organism: Rattus norvegicus
# Assay: Open TG-GATES - Regimen: Daily Repeat
# Type: toxicity, organism-based, Sprague-Dawley
# Design: regimen Daily Repeat, gender Male, age 6 weeks
# Details: in vivo, po, 300 mg/kg, route gavage, dose level Middle; for APTT / Bas / Eos / Fbg / Hb / Ht / Lym / MCH / MCHC / MCV / Mono / Neu / PT / Plat / RBC / Ret / WBC: tissue Blood; for KIDNEY_L / KIDNEY_R / KIDNEY_TOTAL: tissue Kidney; for LIVER: tissue Liver; for A/G / ALP / ALT / AST / BUN / CRE / Ca / Cl / DBIL / GLC / IP / K / LDH / Na / PL / RALB / TBIL / TC / TG / TP / gamma-GTP: tissue Plasma
smiles,measurement,setting,value
CNC(=C[N+](=O)[O-])NCCSCc1ccc(CN(C)C)o1 [RANITIDINE],TERMINAL_BW,"72 h, time 3 day",231.7 g
same,APTT,"72 h, time 3 day",20.3 s
same,Bas,"72 h, time 3 day",0%
same,Eos,"72 h, time 3 day",1%
same,Fbg,"72 h, time 3 day",234.4 mg/dL
same,Hb,"72 h, time 3 day",13.5 g/dL
same,Ht,"72 h, time 3 day",39.4%
same,Lym,"72 h, time 3 day",78.8%
same,MCH,"72 h, time 3 day",21.9 pg
same,MCHC,"72 h, time 3 day",34.3%
same,MCV,"72 h, time 3 day",63.8 fL
same,Mono,"72 h, time 3 day",3.2%
same,Neu,"72 h, time 3 day",15.8%
same,PT,"72 h, time 3 day",12.4 s
same,Plat,"72 h, time 3 day",118.4 x10_4/uL
same,RBC,"72 h, time 3 day",616.4 x10_4/ul
same,Ret,"72 h, time 3 day",5.1%
same,WBC,"72 h, time 3 day",112.2 x10_2/uL
same,KIDNEY_L,"72 h, time 3 day",1 g
same,KIDNEY_R,"72 h, time 3 day",1 g
same,KIDNEY_TOTAL,"72 h, time 3 day",2 g
same,LIVER,"72 h, time 3 day",11.1 g
same,A/G,"72 h, time 3 day",1.6
same,ALP,"72 h, time 3 day",966.2 IU/L
same,ALT,"72 h, time 3 day",43.4 IU/L
same,AST,"72 h, time 3 day",80 IU/L
same,BUN,"72 h, time 3 day",14.8 mg/dL
same,CRE,"72 h, time 3 day",0.4 mg/dL
same,Ca,"72 h, time 3 day",10.9 mg/dL
same,Cl,"72 h, time 3 day",104 meq/L
same,DBIL,"72 h, time 3 day",0.09 mg/dL
same,GLC,"72 h, time 3 day",196.6 mg/dL
same,IP,"72 h, time 3 day",7.2 mg/dL
same,K,"72 h, time 3 day",4.2 meq/L
same,LDH,"72 h, time 3 day",195.6 IU/L
same,Na,"72 h, time 3 day",141.2 meq/L
same,PL,"72 h, time 3 day",142.8 mg/dL
same,RALB,"72 h, time 3 day",3.4 g/dL
same,TBIL,"72 h, time 3 day",0.1 mg/dL
same,TC,"72 h, time 3 day",78.4 mg/dL
same,TG,"72 h, time 3 day",80 mg/dL
same,TP,"72 h, time 3 day",5.5 g/dL
same,gamma-GTP,"72 h, time 3 day",1.8 IU/L
same,TERMINAL_BW,"[…], time 7 day",260.6 g
same,TERMINAL_BW,"[…], time 14 day",309.4 g
same,TERMINAL_BW,"[…], time 28 day",391.7 g
same,APTT,"[…], time 7 day",20.6 s
same,Bas,"[…], time 7 day",0%
same,Eos,"[…], time 7 day",1%
same,Fbg,"[…], time 7 day",227.4 mg/dL
same,Hb,"[…], time 7 day",14.1 g/dL
same,Ht,"[…], time 7 day",39.9%
same,Lym,"[…], time 7 day",83.6%
same,MCH,"[…], time 7 day",22 pg
same,MCHC,"[…], time 7 day",35.5%
same,MCV,"[…], time 7 day",62 fL
same,Mono,"[…], time 7 day",1.6%
same,Neu,"[…], time 7 day",12.4%
same,PT,"[…], time 7 day",12.4 s
same,Plat,"[…], time 7 day",130.4 x10_4/uL
same,RBC,"[…], time 7 day",644.2 x10_4/ul
same,Ret,"[…], time 7 day",4.8%
same,WBC,"[…], time 7 day",81.6 x10_2/uL
same,APTT,"[…], time 14 day",19.1 s
same,Bas,"[…], time 14 day",0%
same,Eos,"[…], time 14 day",0.8%
same,Fbg,"[…], time 14 day",239.2 mg/dL
same,Hb,"[…], time 14 day",14.6 g/dL
same,Ht,"[…], time 14 day",40.6%
same,Lym,"[…], time 14 day",76.8%
same,MCH,"[…], time 14 day",21.3 pg
same,MCHC,"[…], time 14 day",36%
same,MCV,"[…], time 14 day",59.2 fL
same,Mono,"[…], time 14 day",2.4%
same,Neu,"[…], time 14 day",18.4%
same,PT,"[…], time 14 day",12.1 s
same,Plat,"[…], time 14 day",117.4 x10_4/uL
same,RBC,"[…], time 14 day",687.2 x10_4/ul
same,Ret,"[…], time 14 day",3.9%
same,WBC,"[…], time 14 day",111.2 x10_2/uL
same,APTT,"[…], time 28 day",21 s
same,Bas,"[…], time 28 day",0%
same,Eos,"[…], time 28 day",1.2%
same,Fbg,"[…], time 28 day",216.2 mg/dL
same,Hb,"[…], time 28 day",15.3 g/dL
same,Ht,"[…], time 28 day",43.2%
same,Lym,"[…], time 28 day",81.4%
same,MCH,"[…], time 28 day",20.5 pg
same,MCHC,"[…], time 28 day",35.4%
same,MCV,"[…], time 28 day",58.1 fL
same,Mono,"[…], time 28 day",1.8%
same,Neu,"[…], time 28 day",14%
same,PT,"[…], time 28 day",12.3 s
same,Plat,"[…], time 28 day",110 x10_4/uL
same,RBC,"[…], time 28 day",747 x10_4/ul
same,Ret,"[…], time 28 day",2.2%
same,WBC,"[…], time 28 day",117.7 x10_2/uL
same,KIDNEY_L,"[…], time 7 day",1.1 g
same,KIDNEY_R,"[…], time 7 day",1.1 g
same,KIDNEY_TOTAL,"[…], time 7 day",2.2 g
same,KIDNEY_L,"[…], time 14 day",1.2 g
same,KIDNEY_R,"[…], time 14 day",1.2 g
same,KIDNEY_TOTAL,"[…], time 14 day",2.4 g
same,KIDNEY_L,"[…], time 28 day",1.4 g
same,KIDNEY_R,"[…], time 28 day",1.5 g
same,KIDNEY_TOTAL,"[…], time 28 day",2.9 g
same,LIVER,"[…], time 7 day",11.7 g
same,LIVER,"[…], time 14 day",13.8 g
same,LIVER,"[…], time 28 day",16.3 g
same,A/G,"[…], time 7 day",1.5
same,ALP,"[…], time 7 day",802.2 IU/L
same,ALT,"[…], time 7 day",33.2 IU/L
same,AST,"[…], time 7 day",61.4 IU/L
same,BUN,"[…], time 7 day",14.6 mg/dL
same,CRE,"[…], time 7 day",0.4 mg/dL
same,Ca,"[…], time 7 day",10.6 mg/dL
same,Cl,"[…], time 7 day",103.8 meq/L
same,DBIL,"[…], time 7 day",0.084 mg/dL
same,GLC,"[…], time 7 day",211.6 mg/dL
same,IP,"[…], time 7 day",7.5 mg/dL
same,K,"[…], time 7 day",3.8 meq/L
same,LDH,"[…], time 7 day",159.2 IU/L
same,Na,"[…], time 7 day",141 meq/L
same,PL,"[…], time 7 day",138.2 mg/dL
same,RALB,"[…], time 7 day",3.4 g/dL
same,TBIL,"[…], time 7 day",0.1 mg/dL
same,TC,"[…], time 7 day",72.8 mg/dL
same,TG,"[…], time 7 day",83 mg/dL
same,TP,"[…], time 7 day",5.7 g/dL
same,gamma-GTP,"[…], time 7 day",1.4 IU/L
same,A/G,"[…], time 14 day",1.4
same,ALP,"[…], time 14 day",849.4 IU/L
same,ALT,"[…], time 14 day",36.4 IU/L
same,AST,"[…], time 14 day",70.4 IU/L
same,BUN,"[…], time 14 day",17.4 mg/dL
same,CRE,"[…], time 14 day",0.5 mg/dL
same,Ca,"[…], time 14 day",10.6 mg/dL
same,Cl,"[…], time 14 day",103.6 meq/L
same,DBIL,"[…], time 14 day",0.098 mg/dL
same,GLC,"[…], time 14 day",203.8 mg/dL
same,IP,"[…], time 14 day",7.1 mg/dL
same,K,"[…], time 14 day",4 meq/L
same,LDH,"[…], time 14 day",228.8 IU/L
same,Na,"[…], time 14 day",142.2 meq/L
same,PL,"[…], time 14 day",151.6 mg/dL
same,RALB,"[…], time 14 day",3.5 g/dL
same,TBIL,"[…], time 14 day",0.2 mg/dL
same,TC,"[…], time 14 day",68.6 mg/dL
same,TG,"[…], time 14 day",142.4 mg/dL
same,TP,"[…], time 14 day",6 g/dL
same,gamma-GTP,"[…], time 14 day",1 IU/L
same,A/G,"[…], time 28 day",1.3
same,ALP,"[…], time 28 day",642.2 IU/L
same,ALT,"[…], time 28 day",34.6 IU/L
same,AST,"[…], time 28 day",60.2 IU/L
same,BUN,"[…], time 28 day",18 mg/dL
same,CRE,"[…], time 28 day",0.5 mg/dL
same,Ca,"[…], time 28 day",10.5 mg/dL
same,Cl,"[…], time 28 day",102.8 meq/L
same,DBIL,"[…], time 28 day",0.1 mg/dL
same,GLC,"[…], time 28 day",200 mg/dL
same,IP,"[…], time 28 day",6.9 mg/dL
same,K,"[…], time 28 day",3.6 meq/L
same,LDH,"[…], time 28 day",112 IU/L
same,Na,"[…], time 28 day",141.2 meq/L
same,PL,"[…], time 28 day",138.4 mg/dL
same,RALB,"[…], time 28 day",3.4 g/dL
same,TBIL,"[…], time 28 day",0.2 mg/dL
same,TC,"[…], time 28 day",64.6 mg/dL
same,TG,"[…], time 28 day",125.6 mg/dL
same,TP,"[…], time 28 day",6.1 g/dL
same,gamma-GTP,"[…], time 28 day",1 IU/L
